Measurements: patent US11690899B2, “Combination of bactericidal agent with a lysosomotropic alkalinising agent for the treatment of a bacterial infection” (priority 2015, dated 2023)

What was measured:
S. aureus Cowan [1] = experiment: S. aureus Cowan-infected A549 cells treated with flucloxacillin and lysosomotropic alkalinizing agents (intracellular persisters, SCVs); assay type: cell-based, Staphylococcus aureus; details: for effect on phagolysosomal pH: infected host cells
Method: Reduction of S. aureus persisters through phagolysosome alkalinization. S. aureus Cowan-infected A549 cells were treated with flucloxacillin alone (control) or supplemented with lysosomotropic alkalinizing agents (chloroquine (a), bafilomycin A1 (b) and ammonium chloride (c)). Colony phenotypes of viable intracellular persisting bacteria were determined and enumerated at indicated time points. Data were pooled from three independent experiments done in triplicates, mean±SEM. Two-way ANOVA found the factors time and treatment to be significant (p-value<0.01).
MSSA strain Cowan is highly invasive, but not cytotoxic which allowed maintaining this strain intracellularly over several days in the lung epithelial cell line A549. Extracellular bacteria were killed by adding a high dose of flucloxacillin to the infected host cells. Flucloxacillin is typically used to treat S. aureus endocarditis in patients. Absence of extracellular bacteria was confirmed by sterility of culture supernatants. Host cells were lysed to release intracellular bacteria and colony counts, as well as colony phenotypes, were determined at various time points. […] The number of viable intracellular persisting bacteria decreased during the course of infection while the frequency of SCVs increased and reached 5.6% after seven days.
No differences in total colony counts between control and treated cells were observed. […] No significant differences in host cell viability were observed after treatment with the alkalinizing agents.
Growth resumption of S. aureus persisters through treatment of host cells with chloroquine was assessed. […] We observed no dividing bacteria in infected host cells without chloroquine treatment.

S. aureus Cowan [2] = experiment: In vivo infection model: mice infected intraperitoneally with S. aureus Cowan; parameters: species or system Staphylococcus aureus
Method: Mice were infected with S. aureus Cowan intraperitoneally. Six hours and two days post-infection mice were treated with 1 mg flucloxacillin and 0.2 mg chloroquine (+CQ). Mice treated with flucloxacillin only served as control (−CQ). †, sacrifice (a). Colony phenotypes of bacteria recovered from target tissues (b), peripheral blood and peritoneal lavage (c) were determined and enumerated. Each point represents one mouse. Horizontal bars indicate mean±SEM, n=11 mice per group. PL, peritoneal lavage. Two-way ANOVA found the factor treatment to be significant (p-value<0.01).
Mice infected with S. aureus Cowan were treated with flucloxacillin alone (control), or in combination with chloroquine (FIG. 5a).

| SMILES | effect on phagolysosomal pH (S. aureus Cowan [1]) | bacterial cell division (transmission electron microscopy) (S. aureus Cowan [1]; three days post-infection, vs host cells without chloroquine) | frequency of SCVs in various organs and compartments (S. aureus Cowan [2]; 1 mg flucloxacillin and 0.2 mg chloroquine at six hours and two days post-infection vs flucloxacillin only) | absolute bacterial numbers (S. aureus Cowan [2]; flucloxacillin with vs without chloroquine) |
| --- | --- | --- | --- | --- |
| CCN(CC)CCCC(C)Nc1ccnc2cc(Cl)ccc12 (stereo not drawn) [Chloroquine, chloroquine] | neutralized the phagolysosomal pH | facilitated bacterial cell division | significantly reduced | comparable |
| Cl.N [ammonium chloride] | neutralized the phagolysosomal pH |  |  |  |
| CO/C1=C\C(C)=C\[C@@H](C)[C@@H](O)[C@@H](C)C/C(C)=C/C=C/[C@H](OC)[C@@H]([C@@H](C)[C@@H](O)[C@H](C)[C@@]2(O)C[C@@H](O)[C@H](C)[C@@H](C(C)C)O2)OC1=O [bafilomycin A1] | neutralized the phagolysosomal pH |  |  |  |
